Source: the supplement of paper PMC8149375

Tests used:
Details in all cases: treatment: drug + dasatinib (fixed dose, not stated); 5 days
[1] = tested on: 769-P; experiment: GI50 of drug in presence of dasatinib; higher = less potent
Protocol: (§1)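 Primary HTS combination arm: 8 RCC cell lines treated with 8 doses (up to 10 uM) of each library drug plus a fixed dose of dasatinib (dose not stated) for 5 days; viability read by CellTiter-Glo and normalised to DMSO. GI50 was fitted with XLfit, AUC is the area under the dose-response curve, and minimum viability is the lowest fraction of DMSO viability across doses.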

[2] = tested on: 786-O; experiment: as above
Protocol: as §1

[3] = tested on: A498; experiment: as above
Protocol: as §1

[4] = tested on: ACHN; experiment: as above
Protocol: as §1

[5] = tested on: CAKI-1; experiment: as above
Protocol: as §1

[6] = tested on: SN12C; experiment: as above
Protocol: as §1

[7] = tested on: TK-10; experiment: as above
Protocol: as §1

[8] = tested on: UO-31; experiment: as above
Protocol: as §1

[9] = tested on: 769-P; experiment: minimum viability across doses, drug + dasatinib, relative to DMSO (fraction); higher = less growth inhibition
Protocol: as §1

[10] = tested on: 786-O; experiment: as above
Protocol: as §1

[11] = tested on: A498; experiment: as above
Protocol: as §1

[12] = tested on: ACHN; experiment: as above
Protocol: as §1

[13] = tested on: CAKI-1; experiment: as above
Protocol: as §1

[14] = tested on: SN12C; experiment: as above
Protocol: as §1

[15] = tested on: TK-10; experiment: as above
Protocol: as §1

[16] = tested on: UO-31; experiment: as above
Protocol: as §1

[17] = tested on: 769-P; experiment: AUC of dose-response viability curve, drug + dasatinib, normalised to DMSO (arbitrary (AUC of normalised viability)); higher = less growth inhibition
Protocol: as §1

[18] = tested on: 786-O; experiment: as above
Protocol: as §1

[19] = tested on: A498; experiment: as above
Protocol: as §1

[20] = tested on: ACHN; experiment: as above
Protocol: as §1

[21] = tested on: CAKI-1; experiment: as above
Protocol: as §1

[22] = tested on: SN12C; experiment: as above
Protocol: as §1

[23] = tested on: TK-10; experiment: as above
Protocol: as §1

[24] = tested on: UO-31; experiment: as above
Protocol: as §1

Structure (SMILES)	GI50 of drug [1]	GI50 of drug [2]	GI50 of drug [3]	GI50 of drug [4]	GI50 of drug [5]	GI50 of drug [6]	GI50 of drug [7]	GI50 of drug [8]	minimum viability across doses [9]	minimum viability across doses [10]	minimum viability across doses [11]	minimum viability across doses [12]	minimum viability across doses [13]	minimum viability across doses [14]	minimum viability across doses [15]	minimum viability across doses [16]	AUC of dose-response viability curve [17]	AUC of dose-response viability curve [18]	AUC of dose-response viability curve [19]	AUC of dose-response viability curve [20]	AUC of dose-response viability curve [21]	AUC of dose-response viability curve [22]	AUC of dose-response viability curve [23]	AUC of dose-response viability curve [24]
Cc1cnc(Nc2ccc(OCCN3CCCC3)cc2)nc1Nc1cccc(S(=O)(=O)NC(C)(C)C)c1 + Cc1nc(Nc2ncc(C(=O)Nc3c(C)cccc3Cl)s2)cc(N2CCN(CCO)CC2)n1 [dasatinib]	1340 nM	492 nM	3500 nM	136 nM	376 nM	949 nM	357 nM	913 nM	0.0211	0.0103	0.0831	0.00238	0.00319	0.00825	0.00313	0.00873	2.06	1.73	3.11	1.25	1.66	1.97	1.82	3.1
Cc1cccc(-c2nc(C(C)(C)C)[nH]c2-c2ccc3nccnc3c2)n1 + Cc1nc(Nc2ncc(C(=O)Nc3c(C)cccc3Cl)s2)cc(N2CCN(CCO)CC2)n1 [dasatinib]	7810 nM	> 10000 nM	8410 nM	> 10000 nM	7370 nM	3770 nM	> 10000 nM	> 10000 nM	0.476	0.517	0.411	0.559	0.486	0.317	0.61	0.824	2.34	2.16	3.7	2.06	2.29	2.18	2.51	4.8
Cc1[nH]c(/C=C2/C(=O)Nc3ccc(S(=O)(=O)N(C)c4cccc(Cl)c4)cc32)c(C)c1C(=O)N1CCN(C)CC1 + Cc1nc(Nc2ncc(C(=O)Nc3c(C)cccc3Cl)s2)cc(N2CCN(CCO)CC2)n1 [dasatinib]	5760 nM	3950 nM	> 10000 nM	22 nM	3070 nM	6070 nM	> 10000 nM	9290 nM	0.366	0.279	0.605	0.209	0.173	0.443	0.719	0.448	2.35	2.29	3.28	1.62	2.23	2.43	2.82	3.25
CC(C)(C)c1cnc(CSc2cnc(NC(=O)C3CCNCC3)s2)o1 + Cc1nc(Nc2ncc(C(=O)Nc3c(C)cccc3Cl)s2)cc(N2CCN(CCO)CC2)n1 [dasatinib]	1190 nM	55.8 nM	129 nM	157 nM	131 nM	134 nM	476 nM	429 nM	0.0223	0.00565	0.00993	0.00387	0.034	0.0108	0.189	0.013	2.04	1.26	1.6	1.26	1.59	1.34	2.02	2.06
CNC(=O)Nc1ccc(-c2nc(N3CC4CCC(C3)O4)c3cnn(C4CCC5(CC4)OCCO5)c3n2)cc1 + Cc1nc(Nc2ncc(C(=O)Nc3c(C)cccc3Cl)s2)cc(N2CCN(CCO)CC2)n1 [dasatinib]	36.6 nM	10.7 nM	121 nM	9.64 nM	16.7 nM	32.3 nM	32.5 nM	38.8 nM	0.0698	0.00307	0.0731	0.0427	0.0306	0.116	0.0572	0.00565	1.16	0.872	1.64	0.872	0.907	1.24	1.19	1.2
Nc1nc(N)c2nc(-c3cccc(O)c3)cnc2n1 + Cc1nc(Nc2ncc(C(=O)Nc3c(C)cccc3Cl)s2)cc(N2CCN(CCO)CC2)n1 [dasatinib]	> 10000 nM	220 nM	4140 nM	285 nM	1760 nM	1410 nM	3000 nM	2960 nM	0.647	0.0115	0.222	0.16	0.0946	0.183	0.269	0.0458	2.54	1.84	2.98	1.67	2.17	2.15	2.4	3.5
Nc1ccc(C(=O)Nc2cccc(-c3nc(N4CCOCC4)c4oc5ncccc5c4n3)c2)cn1 + Cc1nc(Nc2ncc(C(=O)Nc3c(C)cccc3Cl)s2)cc(N2CCN(CCO)CC2)n1 [dasatinib]	850 nM	476 nM	6740 nM	361 nM	256 nM	2590 nM	973 nM	1510 nM	0.0371	0.00383	0.283	0.152	0.0783	0.345	0.0664	0.0122	1.99	1.81	3.03	1.68	1.61	2.16	2.16	3.17
O=C1c2ccccc2-c2n[nH]c3cccc1c23 + Cc1nc(Nc2ncc(C(=O)Nc3c(C)cccc3Cl)s2)cc(N2CCN(CCO)CC2)n1 [dasatinib]	> 10000 nM	5350 nM	> 10000 nM	6750 nM	2880 nM	> 10000 nM	6490 nM	> 10000 nM	0.558	0.351	0.693	0.261	0.106	0.629	0.407	0.529	2.38	2.31	3.27	2.22	2.12	2.5	2.45	3.27
CN(C)CCOc1ccc(-c2nc(-c3ccncc3)c(-c3ccc4c(c3)CC/C4=N/O)[nH]2)cc1 + Cc1nc(Nc2ncc(C(=O)Nc3c(C)cccc3Cl)s2)cc(N2CCN(CCO)CC2)n1 [dasatinib]	3460 nM	3720 nM	3760 nM	2480 nM	3900 nM	> 10000 nM	9950 nM	8340 nM	0.0915	0.0096	0.0493	0.0859	0.0583	0.476	0.497	0.0511	2.3	2.6	3.54	2.29	2.33	2.57	3.03	3.9
COc1cc2c(Nc3ccc(NC(=O)c4ccccc4)cc3)ncnc2cc1OCCCN1CCOCC1 + Cc1nc(Nc2ncc(C(=O)Nc3c(C)cccc3Cl)s2)cc(N2CCN(CCO)CC2)n1 [dasatinib]	2910 nM	1210 nM	9270 nM	4.24 nM	385 nM	> 10000 nM	4120 nM	5770 nM	0.24	0.0181	0.283	0.095	0.0572	0.383	0.191	0.0966	2.17	2.13	3.33	1.54	1.76	2.43	2.35	3.27
C[C@@H](N)[C@H]1CC[C@H](C(=O)Nc2ccncc2)CC1.Cl.Cl + Cc1nc(Nc2ncc(C(=O)Nc3c(C)cccc3Cl)s2)cc(N2CCN(CCO)CC2)n1 [dasatinib]	> 10000 nM	> 10000 nM	> 10000 nM	> 10000 nM	> 10000 nM	> 10000 nM	> 10000 nM	> 10000 nM	0.588	0.699	0.877	0.673	0.584	0.657	0.754	0.697	2.34	2.82	3.4	2.61	2.31	2.5	2.98	3.41
Cc1nc(NC(=O)N2CCC[C@H]2C(N)=O)sc1-c1csc(C(C)(C)C)n1 [A66] + Cc1nc(Nc2ncc(C(=O)Nc3c(C)cccc3Cl)s2)cc(N2CCN(CCO)CC2)n1 [dasatinib]	> 10000 nM	323 nM	> 10000 nM	1130 nM	> 10000 nM	> 10000 nM	> 10000 nM	> 10000 nM	0.548	0.352	0.784	0.429	0.539	0.527	0.561	0.761	2.43	1.88	3.64	2.1	2.31	2.33	2.49	3.38
CC1(C)CCC(CN2CCN(c3ccc(C(=O)NS(=O)(=O)c4ccc(NCC5CCOCC5)c([N+](=O)[O-])c4)c(Oc4cnc5[nH]ccc5c4)c3)CC2)=C(c2ccc(Cl)cc2)C1 [ABT-199 (GDC-0199 )] + Cc1nc(Nc2ncc(C(=O)Nc3c(C)cccc3Cl)s2)cc(N2CCN(CCO)CC2)n1 [dasatinib]	> 10000 nM	> 10000 nM	> 10000 nM	> 10000 nM	> 10000 nM	> 10000 nM	> 10000 nM	> 10000 nM	0.692	0.586	0.899	0.542	0.592	0.68	0.61	1	2.58	2.43	3.56	2.01	2.29	2.51	2.39	3.9
CC1(C)CCC(c2ccc(Cl)cc2)=C(CN2CCN(c3ccc(C(=O)NS(=O)(=O)c4ccc(N[C@H](CCN5CCOCC5)CSc5ccccc5)c(S(=O)(=O)C(F)(F)F)c4)cc3)CC2)C1 [ABT-263 (Navitoclax)] + Cc1nc(Nc2ncc(C(=O)Nc3c(C)cccc3Cl)s2)cc(N2CCN(CCO)CC2)n1 [dasatinib]	768 nM	136 nM	> 10000 nM	1060 nM	> 10000 nM	> 10000 nM	1080 nM	400 nM	0.024	0.00344	0.608	0.0781	0.555	0.502	0.0882	0.00471	1.92	1.46	3.01	1.9	2.36	2.48	2.03	2
